In data set [1] the test system is human CD34+ HSPCs. Conditions: for effect on LV transduction of combining the compound with CsH: hCB- and mPB-derived HSPC, LV MOI 1 or 10.
Data set [2] has as its system human HSPCs. The data set can be described thus: Colony-forming cell assay. The data set is classed as cell-based. As for the experimental part: Colony-forming cell assays were performed by plating 8×10^2 human HSPCs transduced in the presence of the different compounds in a methylcellulose-based medium (Methocult GF4434; Stem Cell Technologies). Fifteen days later colonies were scored by light microscopy for colony numbers and morphology. CFU-E and BFU-E were scored as erythroid colonies, while CFU-G, CFU-M and CFU-GM and CFU-GEMM were scored as myeloid colonies. Moreover, single colonies were plucked for molecular analysis.

Data set [3] relates to CB-derived CD34+ HSPCs. Particulars: Wang et al. 2014; cited from earlier work.

As for `CCCCC[C@H](O)/C=C/[C@H]1[C@H](O)CC(=O)[C@@H]1C/C=C\CCCC(=O)O` [prostaglandin E2, Prostaglandin E2, reference compound], the “effect on LV transduction of combining the compound with CsH” value in data set [1] was “additive”. Further, the colony-forming capacity result in data set [2] (mPB-CD34+ cells, IDUA-LV MOI 50, vs control) is “No differences in colony-forming capacity”.

As for `CO[C@H]1C[C@@H]2CC[C@@H](C)[C@@](O)(O2)C(=O)C(=O)N2CCCC[C@H]2C(=O)O[C@H]([C@H](C)C[C@@H]2CC[C@@H](O)[C@H](OC)C2)CC(=O)[C@H](C)/C=C(\C)[C@@H](O)[C@@H](OC)C(=O)[C@H](C)C[C@H](C)/C=C/C=C/C=C/1C` [rapamycin, Rapamycin, reference compound], the VCN in vitro entry in data set [1] (BM-derived CD34+ cells, single hit IDUA/ARSA-LV vs two-hit standard (MOI 100)) was “comparable to the two-hit gold standard”. For the same molecule, in data set [1] (BM-derived CD34+ cells, single hit vs one-hit control without drugs), the “transduction efficiency of clinical-grade IDUA and ARSA-LV” value was “able to increase transduction efficiency”. Further, in data set [1], the “effect on LV transduction of combining the compound with CsH” value is given as “additive”. In data set [3], the “LV integration site profile in human HSPCs” value is “not to impact the LV integration site profile in human HSPCs”. In addition, the colony-forming capacity entry in data set [2] (BM-derived CD34+ cells transduced with IDUA or ARSA LV) is “no alterations in colony-forming capacity were observed”.

Source of the values: US12485187B2, “Method for improving retroviral transduction and gene editing in hematopoietic stem cells using clyclosporin H and UM171” (Ospedale San Raffaele S.R.L, priority 2017, dated 2025).
